Columns and labels:
Format in all cases: in vivo
[1] = system: rice (Oryza sativa); experiment: Test B flooded paddy test, rice; settings: Flood, scale of 0 to 100 where 0 is no effect and 100 is complete control, 13 to 15 d
Experimental: (§1) Plant species in the flooded paddy test selected from rice (Oryza sativa), sedge, umbrella (small-flower umbrella sedge, Cyperus difformis), ducksalad (Heteranthera limosa), and barnyardgrass (Echinochloa crus-galli) were grown to the 2-leaf stage for testing. At time of treatment, test pots were flooded to 3 cm above the soil surface, treated by application of test compounds directly to the paddy water, and then maintained at that water depth for the duration of the test. Treated plants and controls were maintained in a greenhouse for 13 to 15 d, after which time all species were compared to controls and visually evaluated. Plant response ratings, summarized in Table B, are based on a scale of 0 to 100 where 0 is no effect and 100 is complete control. A dash (-) response means no test result.

[2] = system: pigweed (Amaranthus retroflexus); experiment: Test A postemergence, pigweed; settings: 0 to 100 scale
Excerpt: (§2) Seeds of plant species selected from barnyardgrass (Echinochloa crus-galli), crabgrass (large crabgrass, Digitaria sanguinalis), kochia (Kochia scoparia), ragweed (common ragweed, Ambrosia elatior), morningglory (Ipomoea spp.), velvetleaf (Abutilon theophrasti), ryegrass, It. (Italian ryegrass, Lolium multiflorum), foxtail, giant (giant foxtail, Setaria faberii), wheat (Triticum aestivum), corn (Zea mays), and pigweed (Amaranthus retroflexus), were planted into a blend of loam soil and sand and treated preemergence with a directed soil spray using test chemicals formulated in a non-phytotoxic solvent mixture which included a surfactant. At the same time, plants selected from these crop and weed species and also blackgrass (Alopecurus myosuroides), and galium (catchweed bedstraw, Galium aparine), were planted in pots containing the same blend of loam soil and sand and treated with postemergence applications of test chemicals formulated in the same manner. Plants ranged in height from 2 to 10 cm and were in the one- to two-leaf stage for the postemergence treatment. Treated plants and untreated controls were maintained in a greenhouse for approximately 10 d, after which time all treated plants were compared to untreated controls and visually evaluated for injury. Plant response ratings, summarized in Table A, are based on a 0 to 100 scale where 0 is no effect and 100 is complete control. A dash (-) response means no test result.

[3] = system: galium (catchweed bedstraw, Galium aparine); experiment: Test A postemergence, galium; settings: 0 to 100 scale
Excerpt: as §2

[4] = system: ragweed (common ragweed, Ambrosia elatior); experiment: Test A preemergence, ragweed; settings: 0 to 100 scale
Excerpt: as §2

[5] = system: kochia (Kochia scoparia); experiment: Test A preemergence, kochia; settings: 0 to 100 scale
Excerpt: as §2

[6] = system: foxtail, giant (giant foxtail, Setaria faberii); experiment: Test A postemergence, foxtail, giant; settings: 0 to 100 scale
Excerpt: as §2

[7] = system: barnyardgrass (Echinochloa crus-galli); experiment: Test A postemergence, barnyardgrass; settings: 0 to 100 scale
Excerpt: as §2

[8] = system: sedge, umbrella (small-flower umbrella sedge, Cyperus difformis); experiment: Test B flooded paddy test, sedge, umbrella; settings: Flood, scale of 0 to 100 where 0 is no effect and 100 is complete control, 13 to 15 d
Experimental: as §1

[9] = system: ragweed (common ragweed, Ambrosia elatior); experiment: Test A postemergence, ragweed; settings: 0 to 100 scale
Excerpt: as §2

[10] = system: ryegrass, It. (Italian ryegrass, Lolium multiflorum); experiment: Test A postemergence, ryegrass, It.; settings: 0 to 100 scale
Excerpt: as §2

[11] = system: blackgrass (Alopecurus myosuroides); experiment: Test A postemergence, blackgrass; settings: 0 to 100 scale
Excerpt: as §2

[12] = system: corn (Zea mays); experiment: Test A postemergence, corn; settings: 0 to 100 scale
Excerpt: as §2

[13] = system: barnyardgrass (Echinochloa crus-galli); experiment: Test A preemergence, barnyardgrass; settings: 0 to 100 scale
Excerpt: as §2

[14] = system: ryegrass, It. (Italian ryegrass, Lolium multiflorum); experiment: Test A preemergence, ryegrass, It.; settings: 0 to 100 scale
Excerpt: as §2

[15] = system: foxtail, giant (giant foxtail, Setaria faberii); experiment: Test A preemergence, foxtail, giant; settings: 0 to 100 scale
Excerpt: as §2

[16] = system: kochia (Kochia scoparia); experiment: Test A postemergence, kochia; settings: 0 to 100 scale
Excerpt: as §2

[17] = system: pigweed (Amaranthus retroflexus); experiment: Test A preemergence, pigweed; settings: 0 to 100 scale
Excerpt: as §2

[18] = system: barnyardgrass (Echinochloa crus-galli); experiment: Test B flooded paddy test, barnyardgrass; settings: Flood, scale of 0 to 100 where 0 is no effect and 100 is complete control, 13 to 15 d
Experimental: as §1

[19] = system: wheat (Triticum aestivum); experiment: Test A postemergence, wheat; settings: 0 to 100 scale
Excerpt: as §2

[20] = system: ducksalad (Heteranthera limosa); experiment: Test B flooded paddy test, ducksalad; settings: Flood, scale of 0 to 100 where 0 is no effect and 100 is complete control, 13 to 15 d
Experimental: as §1

Structure (SMILES) | Plant response rating, Pigweed ([2]; 125 g ai/ha) | Plant response rating, Pigweed ([2]; 500 g ai/ha) | Plant response rating, Galium ([3]; 125 g ai/ha) | Plant response rating, Galium ([3]; 500 g ai/ha) | Plant response rating, Ragweed ([4]; 125 g ai/ha) | Plant response rating, Ragweed ([4]; 500 g ai/ha) | Plant response rating, Kochia ([5]; 125 g ai/ha) | Plant response rating, Kochia ([5]; 500 g ai/ha) | Plant response rating, Foxtail, Giant ([6]; 125 g ai/ha) | Plant response rating, Foxtail, Giant ([6]; 500 g ai/ha) | Plant response rating, Barnyardgrass ([7]; 125 g ai/ha) | Plant response rating, Barnyardgrass ([7]; 500 g ai/ha) | Plant response rating, Ragweed ([9]; 125 g ai/ha) | Plant response rating, Ragweed ([9]; 500 g ai/ha) | Plant response rating, Ryegrass, It. ([10]; 125 g ai/ha) | Plant response rating, Ryegrass, It. ([10]; 500 g ai/ha) | Plant response rating, Blackgrass ([11]; 125 g ai/ha) | Plant response rating, Blackgrass ([11]; 500 g ai/ha) | Plant response rating, Corn ([12]; 125 g ai/ha) | Plant response rating, Corn ([12]; 500 g ai/ha) | other results
O=C1NCC(Cc2ccc(C(F)(F)F)cc2)C1C(=O)Nc1cccc(F)c1F (centres unmarked) [Compound 7] | 0 | 0 | 0 | 0 | 0 | 0 | 0 | 0 | 0 | 20 | 0 | 60 | 0 | 0 | 0 | 0 | 0 | 0 | 0 | 0 | Plant response rating, Rice ([1]; 500 g ai/ha): 0; Plant response rating, Sedge, Umbrella ([8]; 500 g ai/ha): 0; Plant response rating, Barnyardgrass ([13]; 125 g ai/ha): 0; Plant response rating, Barnyardgrass ([13]; 500 g ai/ha): 40; Plant response rating, Ryegrass, It. ([14]; 125 g ai/ha): 0; Plant response rating, Ryegrass, It. ([14]; 500 g ai/ha): 0; Plant response rating, Foxtail, Giant ([15]; 125 g ai/ha): 0; Plant response rating, Foxtail, Giant ([15]; 500 g ai/ha): 30; Plant response rating, Kochia ([16]; 125 g ai/ha): 0; Plant response rating, Kochia ([16]; 500 g ai/ha): 0; Plant response rating, Pigweed ([17]; 125 g ai/ha): 0; Plant response rating, Pigweed ([17]; 500 g ai/ha): 0; Plant response rating, Barnyardgrass ([18]; 500 g ai/ha): 25; Plant response rating, Wheat ([19]; 125 g ai/ha): 0; Plant response rating, Wheat ([19]; 500 g ai/ha): 0; Plant response rating, Ducksalad ([20]; 500 g ai/ha): 75
O=C1NCC(/C=C/c2cccc(F)c2)C1C(=O)Nc1ccccc1F (centres unmarked) [Compound 24] | 0 | 0 | 0 | 0 | 0 | 30 | 0 | 20 | 30 | 80 | 0 | 70 | 0 | 0 | 0 | 0 | 0 | 0 | 0 | 0 | Plant response rating, Rice ([1]; 250 g ai/ha): 0; Plant response rating, Sedge, Umbrella ([8]; 250 g ai/ha): 0; Plant response rating, Barnyardgrass ([13]; 125 g ai/ha): 30; Plant response rating, Barnyardgrass ([13]; 500 g ai/ha): 70; Plant response rating, Ryegrass, It. ([14]; 125 g ai/ha): 0; Plant response rating, Ryegrass, It. ([14]; 500 g ai/ha): 0; Plant response rating, Foxtail, Giant ([15]; 125 g ai/ha): 60; Plant response rating, Foxtail, Giant ([15]; 500 g ai/ha): 90; Plant response rating, Pigweed ([17]; 125 g ai/ha): 0; Plant response rating, Pigweed ([17]; 500 g ai/ha): 0; Plant response rating, Barnyardgrass ([18]; 250 g ai/ha): 70; Plant response rating, Wheat ([19]; 125 g ai/ha): 0; Plant response rating, Wheat ([19]; 500 g ai/ha): 0; Plant response rating, Ducksalad ([20]; 250 g ai/ha): 90
O=C1NCC(/C=C/c2ccc(F)cc2)C1C(=O)Nc1ccccc1F (centres unmarked) [Compound 27] | 0 | 20 | 0 | 0 | 0 | 30 | 0 | 40 | 0 | 70 | 0 | 60 | 0 | 0 | 0 | 0 | 0 | 0 | 0 | 0 | Plant response rating, Rice ([1]; 250 g ai/ha): 0; Plant response rating, Sedge, Umbrella ([8]; 250 g ai/ha): 0; Plant response rating, Barnyardgrass ([13]; 125 g ai/ha): 0; Plant response rating, Barnyardgrass ([13]; 500 g ai/ha): 50; Plant response rating, Ryegrass, It. ([14]; 125 g ai/ha): 0; Plant response rating, Ryegrass, It. ([14]; 500 g ai/ha): 20; Plant response rating, Foxtail, Giant ([15]; 125 g ai/ha): 0; Plant response rating, Foxtail, Giant ([15]; 500 g ai/ha): 60; Plant response rating, Pigweed ([17]; 125 g ai/ha): 0; Plant response rating, Pigweed ([17]; 500 g ai/ha): 0; Plant response rating, Barnyardgrass ([18]; 250 g ai/ha): 0; Plant response rating, Wheat ([19]; 125 g ai/ha): 0; Plant response rating, Wheat ([19]; 500 g ai/ha): 0; Plant response rating, Ducksalad ([20]; 250 g ai/ha): 80

Reference: patent US10906873B2, “Substituted cyclic amides as herbicides” (FMC Corporation, priority 2015, dated 2021)
